Read-outs that look alike come from different tables or passages of the source. A value given as a limit tells only on which side of the number the result lay.

One series has as its target T1, human CB1R (Homo sapiens, UniProt P21554).
T1 construct: expressed in transfected cells; host or cells: Chinese hamster ovary (CHO) cells, stably transfected; crude membrane homogenates
The series can be described thus: in vitro binding affinity assay, membrane homogenates of CHO cells stably transfected with human CB1R, radioligand [3H]SR141716A. The note with it: CHO membranes, mean of two values (c: mean of three values), read-out: K iCB1R mean. An excerpt: (§1) The eight target compounds 2 o , m , p , 3 o , m , p , 4, and 5 have been investigated in in vitro binding affinity assays using crude membrane preparations obtained from Chinese hamster ovary cells stably transfected with either human CB1R or CB2R and the target‐specific radioligands [ ^ 3 H]SR141716A and [ ^ 3 H]WIN55212‐2, respectively (structures shown in Figure S90, Supporting Information).
(§2) The affinity assays have been performed with membrane homogenates from Chinese hamster ovary cells (CHO) stably transfected either with human CB2R or CB1R. Already published protocols have been used.^[ [99] ^]

Series [1] is described as follows: stability in DMSO/H2O (1:1, v/v) by HPLC-UV-MS. It counts as physicochemical. The note with it: RP-HPLC. Here is the method:
The stability was determined analogously to the purity determination and as described in a previous publication.^[ [79] ^] Instead of CH3CN or MeOH, a solvent mixture of DMSO/H2O (1:1, v/v) was used for all samples, as well as the blank measurements. Measurements were conducted directly after solvent addition and up to three days (Figure S82–S89, Supporting Information).
5 Determi naƟon of the Stability of Compounds 2o,m,p, 3o,m,p, 4, and 5
The stability measurements have been performed with an HPLC-UV-MS on an RP column. Blank samples of pure DMSO/H20 (1:1, v/v) have been measured prior to the target compounds. The target compounds have been dissolved in DMSO/H2O (1:1, v/v) for stability determinaƟon. The measurements have been started directly aŌer the addiƟon of the water. The double peaks or shoulders of the signals of the compound are related to the column that has been used. Broad signals have been obser ved in case of the nido-carborane derivaƟves .
Figure S82. RP-HPLC chromatograms of blank (DMSO/H2O, black and dark blue) and compound 2o, retention time: 11.4 min, purity after 2.5 d: […]

The target of another series is T2, human CB2R (Homo sapiens, UniProt P34972).
T2 construct: expressed in transfected cells; host or cells: Chinese hamster ovary (CHO) cells, stably transfected; crude membrane homogenates
Description: in vitro binding affinity assay, membrane homogenates of CHO cells stably transfected with human CB2R, radioligand [3H]WIN55212-2. The note with it: for Selectivity index (SI): SI = K iCB1R/K iCB2R; for Ki / K iCB2R mean: human CB2R, CHO membranes, [3H]WIN55212-2, mean of two values; for Ki: read-out: K iCB2R mean.
Description: as §1, §2

Series [2] concerns the target CB2R. The arrangement: method as in PMID 25272206. The settings on record: mean of at least three separate experiments in duplicate, other testing conditions; read-out: K iCB2R mean; cited from earlier work.
In a further series the target is CB1R. The arrangement: method as in PMID 25272206. The note with it: mean of at least three separate experiments in duplicate, other testing conditions; read-out: K iCB1R mean; cited from earlier work.
The subject of series [3] is CB2R. The series can be described thus: CB2R binding affinity, literature value of Lucchesi et al., other testing conditions. The settings on record: SI = K iCB1R/K iCB2R, from literature values. The source says: Table 1 Binding affinities of target compounds 2 o , m , p , 3 o , m , p , 4, and 5. | column: Selectivity index (SI) ^e)
The target in series [4] is CB2R. The arrangement: method as in PMID 36944112. The settings on record: previously reported; L7 (ortho): one value; read-out: K iCB2R mean; cited from earlier work.

T2 sequence (P34972 whole entry): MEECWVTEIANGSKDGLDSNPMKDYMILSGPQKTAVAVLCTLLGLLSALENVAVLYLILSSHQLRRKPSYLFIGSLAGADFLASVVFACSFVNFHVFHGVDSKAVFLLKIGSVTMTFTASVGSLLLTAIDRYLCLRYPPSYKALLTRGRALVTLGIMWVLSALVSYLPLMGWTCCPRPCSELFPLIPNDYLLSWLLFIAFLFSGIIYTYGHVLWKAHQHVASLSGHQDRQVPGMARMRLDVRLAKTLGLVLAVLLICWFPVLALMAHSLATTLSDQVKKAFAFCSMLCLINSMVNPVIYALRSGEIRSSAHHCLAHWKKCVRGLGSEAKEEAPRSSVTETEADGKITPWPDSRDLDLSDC
T1 sequence (P21554 whole entry): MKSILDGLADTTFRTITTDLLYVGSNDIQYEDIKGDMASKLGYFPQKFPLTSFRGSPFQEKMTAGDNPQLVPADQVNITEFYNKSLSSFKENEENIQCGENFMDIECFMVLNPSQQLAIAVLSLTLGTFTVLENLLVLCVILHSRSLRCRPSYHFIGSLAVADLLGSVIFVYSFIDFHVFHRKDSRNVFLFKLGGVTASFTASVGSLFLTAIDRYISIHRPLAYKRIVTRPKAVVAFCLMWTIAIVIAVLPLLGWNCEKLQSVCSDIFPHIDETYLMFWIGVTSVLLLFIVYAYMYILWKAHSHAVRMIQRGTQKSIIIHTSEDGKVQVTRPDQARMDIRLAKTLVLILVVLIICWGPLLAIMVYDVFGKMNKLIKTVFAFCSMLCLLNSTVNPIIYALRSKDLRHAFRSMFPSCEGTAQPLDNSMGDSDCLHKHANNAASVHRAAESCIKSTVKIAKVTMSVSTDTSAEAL

Turning to “1‐(4‐Fluorobenzyl)‐6‐iodo‐2‐oxo‐N‐(1,2‐closo‐dicarba‐dodecaborane)‐1,2‐dihydro‐1,8‐naphthyridine‐3‐carboxamide [3 o]”, the Ki was determined as 3940 nM at human CB1R and 15.2 nM at human CB2R. The figures for the “purity after 6 h (stability)” value in series [1] and in series [1] (listed as 3o) were 93% and ~ 93%, respectively. Also, the “Selectivity index (SI)” value on human CB2R is given as 260.

In the case of “1‐(4‐Fluorobenzyl)‐6‐iodo‐2‐oxo‐N‐(1,7‐closo‐dicarba‐dodecaborane)‐1,2‐dihydro‐1,8‐naphthyridine‐3‐carboxamide [3 m]”, at human CB1R, the Ki was determined as 6090 nM. Besides, in series [1], the “purity after 1 d (stability)” value is ~ 98%. Further, on human CB2R, the “Selectivity index (SI)” value is on record as 877 and the Ki came to 6.95 nM.

Regarding “1‐(4‐Fluorobenzyl)‐6‐iodo‐2‐oxo‐N‐(1,12‐closo‐dicarba‐dodecaborane)‐1,2‐dihydro‐1,8‐naphthyridine‐3‐carboxamide [3 p]”, the Ki was determined as 5520 nM at human CB1R and 7.55 nM on human CB2R. Moreover, the “purity after 1 d (stability)” value in series [1] was above 98%. Also, the “Selectivity index (SI)” value at human CB2R is on record as 730.

Take “6‐Bromo‐1‐(4‐fluorobenzyl)‐2‐oxo‐N‐(1,2‐closo‐dicarba‐dodecaborane)‐1,2‐dihydro‐1,8‐naphthyridine‐3‐carboxamide [2 o]”: the Ki was found to be 97800 nM on human CB1R and 29 nM at human CB2R. The “purity after 2.5 d (stability)” value in series [1] (after 2.5 d) is on record as above 98%. The “Selectivity index (SI)” value on human CB2R was found to be 3378.

For the compound “6‐Bromo‐1‐(4‐fluorobenzyl)‐2‐oxo‐N‐(1,7‐closo‐dicarba‐dodecaborane)‐1,2‐dihydro‐1,8‐naphthyridine‐3‐carboxamide [2 m]”, the Ki at human CB1R turned out to be 1680 nM; on human CB2R, 6.16 nM. Further, in series [1], the “purity after 1 d (stability)” value is recorded as ~ 98%. The “Selectivity index (SI)” value at human CB2R came to 273.

Regarding “6‐Bromo‐1‐(4‐fluorobenzyl)‐2‐oxo‐N‐(1,12‐closo‐dicarba‐dodecaborane)‐1,2‐dihydro‐1,8‐naphthyridine‐3‐carboxamide [2 p]”, the Ki at human CB1R is 7220 nM. At human CB2R, the “Selectivity index (SI)” value is listed as 937 and the Ki came to 7.71 nM.

With `C[C@H]1CC[C@@H](NC(=O)c2cc3cc(Br)cnc3n(Cc3ccc(F)cc3)c2=O)CC1` [L1 (cis)], the Ki at CB2R [2] was 0.12 ± 0.002 nM; at CB1R, 121 ± 5.32 nM. Further, in the series on CB2R [3], the “Selectivity index (SI)” value is reported as 1010.

For “(Z)‐N‐[3‐(4‐fluoro[^18F]butyl‐d 8)‐4,5‐dimethylthiazole‐2(3 H)‐ylidene]‐(1,7‐dicarba‐closo‐dodecaboranyl)‐carboxamide [[18F]LUZ5-d8]”, the Ki at CB2R [4] is 0.8 nM.

As to “Sodium 1‐(4‐Fluorobenzyl)‐6‐iodo‐2‐oxo‐N‐(7,8‐nido‐dicarba‐dodecahydroundecaborate(–1))‐1,2‐dihydro‐1,8‐naphthyridine‐3‐carboxamide [Compound 5]”, the Ki at human CB1R was found to be 90800 nM. Besides, the “purity after 1 d (stability)” value in series [1] is recorded as above 97%. On human CB2R, the “Selectivity index (SI)” value came out at 247, the “K iCB2R mean” value was “very low affinity” and the Ki came out at 368 nM.

On to “Sodium 6‐Bromo‐1‐(4‐fluorobenzyl)‐2‐oxo‐N‐(7,8‐nido‐dicarba‐dodecahydroundecaborate(–1))‐1,2‐dihydro‐1,8‐naphthyridine‐3‐carboxamide [Compound 4]”, for which, at human CB1R, the Ki was found to be 53200 nM. Also, the “purity after 3 d (stability)” value in series [1] (after 3 d) is listed as ~ 98%. At human CB2R, the “Selectivity index (SI)” value came to 62, the “K iCB2R mean” value is reported as “very low affinity” and the Ki is 857 nM.

(Values after article PMC12444839, “Development of Carborane‐Based Halogenated Naphthyridinone‐Analogues as Cannabinoid Receptor Type 2 (CB2R) Ligands” (Chemmedchem, 2025).)
